Results from PMC6371959 (Antiviral Research, 2018).
pEC50: −log10 of the molar value. Where two headings read alike, the source gives them in different places.

Tests used:
[1] = test system: EBOV minigenome (WT NP); assay: microbe, parasite or virus in culture; assay type: cell-based, Ebola virus (EBOV), Makona strain; details: Zaire ebolavirus, read-out: EC50 (reduction in luciferase, EBOV minigenome)
[2] = test system: Bunyamwera virus (BUNV) minigenome; assay: microbe, parasite or virus in culture; assay type: cell-based; details: BSR-T7, read-out: EC50 (BUNV minigenome control)
[3] = test system: T7FFLuc control (T7 RNA polymerase driven firefly luciferase); assay: cells; assay type: cell-based; details: BSR-T7, read-out: EC50 (T7FFLuc control)
[4] = test system: T7FFLuc control (T7 RNA polymerase driven firefly luciferase); assay: cells; assay type: cell-based; details: read-out: EC50 (T7FFLuc control)
[5] = test system: Huh7-Lunet-T7 cells; details: human
[6] = in vitro; details: hamster, CC50 (reduction in cell viability, MTT)
[7] = in vitro; details: human, CC50 (reduction in cell viability, MTT)
[8] = test system: EBOV minigenome (WT NP); assay: microbe, parasite or virus in culture; details: Zaire ebolavirus; for pEC50: BSR-T7, read-out: EC50 (reduction in luciferase, EBOV minigenome)
[9] = test system: EBOV minigenome (WT NP); assay: in vitro; details: hamster
[10] = test system: influenza NP; details: cited from earlier work

SMILES	pEC50 [1]	pEC50 [2]	pEC50 [3]	pEC50 [4]	CC50 [5] [µM]	CC50 [6] [µM]	CC50 [7] [µM]	pEC50 [8]	EC90 ([8]; BSR-T7, read-out: EC90 (EBOV minigenome)) [µM]	inhibition at 4.8 µM ([8]; BSR-T7, read-out: inhibition of luciferase (time course)) [%]	selectivity ratio [9]	EC50 (influenza, NP aggregation) [10]
O=C(c1cccc(/C=C2\SC(=O)N(Cc3ccccc3)C2=O)c1)N1CCN(c2ccccn2)CC1 [MCCB4]	5.82	< 4.00	< 4.00	4.51	43.2	> 100	48.8	5.32	49	50	–	–
O=C(c1cccc(/C=C2\SC(=O)N(Cc3ccc(F)cc3)C2=O)c1)N1CCN(c2ccccn2)CC1 [MCCB4-12]	–	–	4.31	–	–	64.8	–	5.06	–	–	6.5	–
O=C(c1cccc(/C=C2\SC(=O)N(Cc3cccc(F)c3)C2=O)c1)N1CCN(c2ccccn2)CC1 [MCCB4-8]	–	–	< 4.00	–	–	46.5	–	4.95	–	–	4	–
Cc1onc(-c2ccccc2)c1C(=O)N1CCN(c2ccc([N+](=O)[O-])cc2Cl)CC1 [Nucleozin]	–	–	–	–	–	–	–	–	–	–	–	nM range
